The record followed here is patent publication EP1858912B1, “COMPOUNDS FOR REDUCING AGGREGATION OF AMYLOID BETA-PEPTIDE” (Alphabeta AB, priority 2005, dated 2012).

Molecules are shown by their SMILES. Where a SMILES comes first, the peptide text is derived from it. Bridges are numbered along the chain shown (N, C = ends). Roman numbers before positions name the chains, in order. [ ]: non-standard residue; d: D form. Dab = NCC[C@H](N)C(=O)O

Assay [1] concerns Aβ(1-40). Briefly: Thioflavin T fluorescence assay of Aβ fibril formation. In kind it is biochemical. As for the experimental part: Fibril formation of Aβ(1-40) or Aβ(12-28) with and without the presence of the ligands was assessed by the fibril-binding dye thioflavin T (ThT). Solutions containing Aβ peptides in concentrations from about 20 µM to 200 µM without ligand present, or at different peptide/ligand ratios were prepared in 10 mM sodium phosphate buffer, pH 7. The samples were incubated at 37°C under constant gentle shaking. At different time points aliquots were removed and ThT measurements performed using 10 µM ThT in 10 mM sodium phosphate buffer, pH 6, containing 150mMNaCl.
The samples were incubated for 10-15 minutes in the dark before ThT fluorescence measurements were made. Fluorescence was measured using a FarCyte™ (Tecan) instrument with excitation at 440 nm and emission at 480 nm. All samples were measured in duplicates.

Assay [2] relates to Aβ(12-28). The assay can be described thus: Tryptophan fluorescence emission of ligand (binding to Aβ). To be noted: after addition of Aβ(12-28); excitation 280 nm. The protocol:
(§1) In these experiments, shifts in fluorescence emission were used to indicate binding. In these experiments, ligand 3 (about 10 µM) was dissolved in sodium phosphate buffer, pH 7, with or without trifluoroethanol present. Fluorescence was measured in a Hitachi F-4000 spectrophotometer, and emission was measured between 300 and 430 nm after excitation at 280 nm.
(§2) When Aβ(1-40) or Aβ(12-28) was added to a solution containing ligand 3, the fluorescence yield was increased (e.g., Fig 7) and the wavelength at maximum emission was shifted from about 348 nm to 344 nm.

The subject of assay [3] is Aβ(1-40). The description is as above. To be noted: excitation 280 nm; for emission maximum: sodium phosphate buffer pH 7, 30% (v/v) trifluoroethanol, 20°C. As for the experimental part: as §1, §2
Assay [4] relates to Aβ(12-28). The assay can be described thus: Circular dichroism spectroscopy of Aβ secondary structure. In kind it is biochemical. The settings on record: 1:1 molar ratio, sodium phosphate buffer pH 7, 30% (v/v) trifluoroethanol, 20°C; compared with Aβ(12-28) alone; ligand spectrum subtracted. The protocol:
Compounds described herein can be tested for their ability to affect the secondary structure of an Aβ peptide. As an example, addition of ligands to Aβ(1-40) or Aβ(12-28) in solution increased the helical content of Aβ peptides, as measured by circular dichroism (CD) spectroscopy. This is evidenced by a decrease in molar ellipticity at 208 and 222 nm, and an increase in molar ellipticity at 190-195 nm (an example is shown in Fig. 6). In these experiments, Aβ peptides (concentration about 20 µM to 100 µM) were mixed with ligands in ligand/Aβ molar ratios ranging between 1 and 10. The measurements were performed in phosphate buffer (as described below for thioflavin T measurements) or in phosphate buffer containing 30% trifluoroethanol. The samples were incubated at 37°C with or without shaking before measurements. CD measurements were performed at room temperature in a Jasco 810 instrument using a 1 mm cuvette (sample volume 200-300 µl). For each sample, three spectra were accumulated. Spectra were measured between 260 and 185 nm, and the spectra of buffer and ligands alone were subtracted from the spectra of the mixtures. Molar ellipticity values were calculated using the recorded spectra and the peptide concentrations, and expressed in kdeg x cm^2/dmol. […]
In general terms: Circular dichroism is widely used to follow secondary structure.

In assay [5] the test system is Drosophila melanogaster express Aβ1-42 in neurons. Briefly: Longevity in Drosophila model of Alzheimer's disease. In kind it is in vivo. The source says:
A model of Alzheimer's disease was used in which Drosophila melanogaster express Aβ1-42 in neurons (Crowther et al., 2005, Neuroscience 132:123-135).

For assay [6], the system named is wild type Drosophila (WIII8) that do not express Aβ(1-42). Briefly: Longevity in control flies not expressing Aβ. The settings on record: 650 µM in the food; control flies not expressing Aβ (Fig. 13). The format is in vivo.

Turning to `CC(=O)N[C@H](CCC(=O)O)C(=O)N[C@@H](CCNC(=O)[C@@H](Cc1c[nH]c2ccccc12)NC(=O)[C@@H](N)CCCNC(=N)N)C(=O)O` [ligand 3, Ac-D-Glu-Dab(Arg-D-Trp)] (I: H-Arg-[dW] / II: Ac-[dE]-[Dab]-OH; amide I:C-II:2), in the assay with Aβ(1-40) [1] (1:1 ligand/peptide molar ratio, 1.5 hours at 37°C (Fig. 9)), the “Aβ(1-40) fibril formation, as measured by ThT binding” value was “effective in reducing Aβ(1-40) fibril formation”. In the assay on Aβ(1-40) [1] (different periods of incubation at 37°C, 10 mM sodium phosphate pH 7, 5:1 or 10:1 ligand/Aβ molar ratio (Fig. 8)), the “ThT fluorescence induced by Aβ(1-40)” value is on record as “practically abolished”. Besides, the ThT fluorescence entry was “further reduction of ThT fluorescence” in the assay with Aβ(1-40) [1] (ligand/Aβ ratio 5, compared with 1:1, 1.5 hours at 37°C (Fig. 9)) and “approximately the same result as a ligand/Aβ ratio of 5” with Aβ(1-40) [1] (ligand/Aβ ratio 10, 1.5 hours at 37°C (Fig. 9)). Moreover, the fluorescence yield result with Aβ(12-28) [2] and in the assay with Aβ(1-40) [3] (after addition of Aβ(1-40)) was “increased” each time. For the same compound, the “wavelength at maximum emission” value in the assay with Aβ(12-28) [2] was 344 nm; in the assay with Aβ(1-40) [3] (after addition of Aβ(1-40)) it was 344 nm; in the assay on Aβ(1-40) [3] (ligand about 10 µM before addition of Aβ), “about 348 nm”. Further, the emission maximum with Aβ(1-40) [3] (complex with Aβ(1-40), 1:1 molar ratio) is recorded as 344 nm; in the assay with Aβ(1-40) [3] (ligand only) it was 348 nm. For the same compound, in the assay with Aβ(12-28) [4], the circular dichroism spectra result was “lowest value at 222 nm and highest value at 195 nm”. Moreover, the mean survival time result in assay [5] (134 µM in the food, 29°C and high humidity (Fig. 12)) is on record as “increased the mean survival time”; in assay [5] (650 µM in the food, 28°C and low humidity, p=0.0035 (Fig. 11)), “prolonged mean survival time”. In assay [5] (fed from the larval stage, compared to untreated flies, two different experimental conditions), the longevity entry is on record as “significant increase in longevity”. Moreover, the “effects on mean survival (longevity)” value in assay [6] is “absence of a statistically significant difference”.
